Measurements taken from PubChem BioAssay (NCI).
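Exposure lasted 48 hours, with cells grown in 96-well plates and compounds tested at five concentrations. TGI: total growth inhibition.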

Tests used:
Experiment in all cases: NCI anticancer screen, dose series, 48 h
HL-60(TB) leukemia = tested on: HL-60(TB) leukemia
RPMI-8226 leukemia = tested on: RPMI-8226 leukemia
OVCAR-4 ovarian = tested on: OVCAR-4 ovarian
NCI/ADR-RES ovarian = tested on: NCI/ADR-RES ovarian
HT29 colon = tested on: HT29 colon
ACHN renal = tested on: ACHN renal
CAKI-1 renal = tested on: CAKI-1 renal
M14 melanoma = tested on: M14 melanoma
HCT-116 colon = tested on: HCT-116 colon
U251 CNS = tested on: U251 CNS
EKVX NSCLC = tested on: EKVX NSCLC
HS 578T breast = tested on: HS 578T breast
HOP-62 NSCLC = tested on: HOP-62 NSCLC
SK-OV-3 ovarian = tested on: SK-OV-3 ovarian
CCRF-CEM leukemia = tested on: CCRF-CEM leukemia

`COc1cc2c(cc1OCCCCOc1cc3c(cc1OC)C(=O)N1CCC[C@H]1C(=O)N3)N=C[C@@H]1CCCN1C2=O` gave a TGI (HL-60(TB) leukemia) of 37.3 µM, a TGI (RPMI-8226 leukemia) of 3.66 µM and a TGI (OVCAR-4 ovarian) of 27.7 µM. For the same molecule, the TGI (NCI/ADR-RES ovarian) was 29 µM, the TGI (HT29 colon) was 43.2 µM and the TGI (ACHN renal) was 27.9 µM. For the same molecule, the TGI (CAKI-1 renal) was 25.5 µM, the TGI (M14 melanoma) was 33 µM and the TGI (HCT-116 colon) was > 100 µM. The TGI (U251 CNS) was 14 µM, the TGI (EKVX NSCLC) was 27.6 µM and the TGI (HS 578T breast) was 27.6 µM. The TGI (HOP-62 NSCLC) was 44.5 µM.

For `COC(=O)CCC(C)C1CCC2C3C(C[C@H](OC(C)=O)[C@]12C)[C@@]1(C)CCC2(C[C@H]1C[C@H]3OC(C)=O)OOC1(CC[C@]3(C)C4C[C@H](OC(C)=O)[C@]5(C)C(C(C)CCC(=O)OC)CCC5C4[C@H](OC(C)=O)C[C@@H]3C1)OO2` (stereo partly specified), the TGI (HL-60(TB) leukemia) was > 100 µM, the TGI (RPMI-8226 leukemia) was > 100 µM and the TGI (OVCAR-4 ovarian) was > 100 µM. For the same molecule, the TGI (NCI/ADR-RES ovarian) was > 100 µM, the TGI (SK-OV-3 ovarian) was > 100 µM and the TGI (HT29 colon) was > 100 µM. For the same molecule, the TGI (ACHN renal) was > 100 µM, the TGI (CAKI-1 renal) was > 100 µM and the TGI (M14 melanoma) was > 100 µM. The TGI (CCRF-CEM leukemia) was > 100 µM, the TGI (HCT-116 colon) was > 100 µM and the TGI (U251 CNS) was > 100 µM. The TGI (EKVX NSCLC) was > 100 µM, the TGI (HS 578T breast) was > 100 µM and the TGI (HOP-62 NSCLC) was > 100 µM.

For `COc1ccccc1/C=C1\NC(=S)N(/C=C2\C(=O)Oc3ccccc3C2=O)C1=O`, the TGI (HL-60(TB) leukemia) was > 100 µM, the TGI (OVCAR-4 ovarian) was > 100 µM and the TGI (NCI/ADR-RES ovarian) was > 100 µM. The TGI (SK-OV-3 ovarian) was > 100 µM, the TGI (HT29 colon) was > 100 µM and the TGI (ACHN renal) was > 100 µM. For the same molecule, the TGI (CAKI-1 renal) was > 100 µM, the TGI (M14 melanoma) was > 100 µM and the TGI (CCRF-CEM leukemia) was 76.5 µM. The TGI (HCT-116 colon) was > 100 µM, the TGI (U251 CNS) was > 100 µM and the TGI (EKVX NSCLC) was > 100 µM. For the same molecule, the TGI (HS 578T breast) was > 100 µM and the TGI (HOP-62 NSCLC) was > 100 µM.

In the case of `Cc1nnc(N)nc1/C=C/c1c(O)ccc2ccccc12`, the TGI (HL-60(TB) leukemia) was 71.4 µM, the TGI (RPMI-8226 leukemia) was > 100 µM and the TGI (OVCAR-4 ovarian) was 61.1 µM. The TGI (NCI/ADR-RES ovarian) was > 100 µM, the TGI (SK-OV-3 ovarian) was > 100 µM and the TGI (HT29 colon) was 87.7 µM. For the same molecule, the TGI (ACHN renal) was 43.7 µM, the TGI (CAKI-1 renal) was > 100 µM and the TGI (M14 melanoma) was 44.1 µM. The TGI (CCRF-CEM leukemia) was > 100 µM, the TGI (HCT-116 colon) was > 100 µM and the TGI (U251 CNS) was > 100 µM. For the same molecule, the TGI (EKVX NSCLC) was 36 µM, the TGI (HS 578T breast) was 85 µM and the TGI (HOP-62 NSCLC) was > 100 µM.

`CSc1ccc(/C=C2\N=C(c3ccccc3)N(c3nc4cc(C)c(C)cc4s3)C2=O)cc1` was tested, and the TGI (HL-60(TB) leukemia) was 86.3 µM, the TGI (RPMI-8226 leukemia) was > 100 µM and the TGI (OVCAR-4 ovarian) was > 100 µM. For the same molecule, the TGI (NCI/ADR-RES ovarian) was > 100 µM, the TGI (SK-OV-3 ovarian) was > 100 µM and the TGI (HT29 colon) was 47.9 µM. For the same molecule, the TGI (ACHN renal) was 58.6 µM, the TGI (CAKI-1 renal) was > 100 µM and the TGI (M14 melanoma) was 75.8 µM. It also gave a TGI (CCRF-CEM leukemia) of 34.6 µM, a TGI (HCT-116 colon) of 44.5 µM and a TGI (U251 CNS) of 36.5 µM. For the same molecule, the TGI (EKVX NSCLC) was 85.9 µM, the TGI (HS 578T breast) was 92.1 µM and the TGI (HOP-62 NSCLC) was 59.4 µM.

In the case of `COc1cccc(N(CN2C(=O)CCC2C(=O)O)C(C)=O)c1` (stereo unspecified), the TGI (HL-60(TB) leukemia) was > 100 µM, the TGI (RPMI-8226 leukemia) was > 100 µM and the TGI (OVCAR-4 ovarian) was > 100 µM. The TGI (NCI/ADR-RES ovarian) was > 100 µM, the TGI (SK-OV-3 ovarian) was > 100 µM and the TGI (HT29 colon) was > 100 µM. The TGI (ACHN renal) was > 100 µM, the TGI (CAKI-1 renal) was > 100 µM and the TGI (M14 melanoma) was > 100 µM. For the same molecule, the TGI (HCT-116 colon) was > 100 µM, the TGI (U251 CNS) was > 100 µM and the TGI (EKVX NSCLC) was > 100 µM. For the same molecule, the TGI (HS 578T breast) was > 100 µM and the TGI (HOP-62 NSCLC) was > 100 µM.

With `O=C1C=CC(=O)c2c1ccc1c3ccccc3n(Cc3cccc([N+](=O)[O-])c3)c21` the TGI (HL-60(TB) leukemia) was 15.3 µM, the TGI (RPMI-8226 leukemia) was > 55.8 µM and the TGI (OVCAR-4 ovarian) was > 63.8 µM. The TGI (NCI/ADR-RES ovarian) was > 90.3 µM, the TGI (SK-OV-3 ovarian) was > 100 µM and the TGI (HT29 colon) was > 73.1 µM. It also gave a TGI (ACHN renal) of 38 µM, a TGI (CAKI-1 renal) of 31 µM and a TGI (M14 melanoma) of 71.7 µM. For the same molecule, the TGI (CCRF-CEM leukemia) was 23 µM, the TGI (HCT-116 colon) was > 62.7 µM and the TGI (U251 CNS) was > 100 µM. The TGI (EKVX NSCLC) was > 100 µM, the TGI (HS 578T breast) was > 100 µM and the TGI (HOP-62 NSCLC) was > 100 µM.
